# Laboratory results published in patent publication US11484512B2, “Nanoparticles formed of a polymer and terbinafine” (Blueberry Therapeutics Limited, priority 2017, dated 2022).
# Where two headings read alike, the source gives them in different places.
# Key:
# [1] = Franz cell nail penetration, single dose (constant exposure); format: in vitro ADME, human
# Experimental: Nail clippings were soaked in water overnight at 30° C. and dried briefly. A 3 mm diameter punch was used to take disc biopsies of the nail clippings. Each nail disc was added to a Franz cell and an upper chamber of the cell attached. 40 μl of the following formulations was added to the upper chambers: 0.3 mg/ml PHMB+0.1 mg/ml terbinafine; or 10 mg/ml terbinafine. Lower collection chambers of the Franz cells were filled with water (approximately 600 μl) and the hole in the base of the sample chamber also filled with ddH2O to prevent bubbles forming beneath the nail. The upper sample chamber was carefully placed into the collection chamber ensuring not to introduce any air bubbles. Excess liquid from the collection chamber was expelled at this point leaving a final volume of liquid in the lower chamber of 500 μl. […] The nail discs from the Franz cell were also analysed for the presence of terbinafine as follows: the remaining test sample was removed from the upper sample chamber and discarded and the sample chamber washed 5 times with 100 μl ddH2O, with each wash being discarded, in order to remove any residual test solution remaining in the sample chamber. […] After 7 days, samples from the underside of the nail (ethanol washes) were collected and analysed by LC-MS/MS. […] Levels of terbinafine were quantified against drug standards. […]
# T. mentagrophytes = assay: Trychophyton mentagrophytes anti-fungal paper disc lawn assay; format: cell-based; settings: 5 days incubation
# Experimental: FIGS. 6A-6E are photographic images of yeast extract peptone dextrose (YEPD) agar plates with Trychophyton mentagrophytes after incubation for 4 days at 30° C. […] 40 μl of double distilled water or terbinafine solution of varying concentration was spotted onto each paper disc. The concentration of the terbinafine solutions used were: 0 μg/ml (control, FIG. 6A), 0.06 μg/ml (FIG. 6B), 0.6 μg/ml (FIG. 6C), 6.00 μg/ml (FIG. 6D) and 60.0 μg/ml (FIG. 6E); FIGS. 7A and 7B are photographic images of YEPD plates assessing the efficacy of BB2603 (terbinafine and PHMB nanoparticles) and terbinafine samples passing through healthy human nail against Trychophyton mentagrophytes A lawn of Trychophyton mentagrophytes was spread onto YEPD agar plates supplemented with 50 μg/ml chloramphenicol. The aqueous samples from the Franz cell collection chamber following 7 days treatment of healthy human nails with either 0.1 mg/ml terbinafine (FIG. 7A) or BB2603 (FIG. 7B) were spotted onto 10 mm paper discs. The discs were placed in the middle of the Trychophyton plates, which were then incubated at 30° C. for 5 days to allow the fungi to grow. […]
# Epidermophyton floccosum = settings: 42 strains tested; cited from earlier work
# Microsporum species = settings: 25 strains tested; cited from earlier work
# Microsporum canis = settings: 49 strains tested; cited from earlier work
# Trichophyton species = settings: 27 strains tested; cited from earlier work
# Trichophyton rubrum = settings: 72 strains tested; cited from earlier work
# Trichophron verrucosum = settings: 17 strains tested; cited from earlier work
# [2] = tested on: Trichophron mentagrophytes; settings: cited from earlier work
# [3] = tested on: Trichophyton interdigitale; settings: 11 strains tested; cited from earlier work
# Trichophyron terestre = settings: 1 strain tested; cited from earlier work
# [4] = cited from earlier work
# onychomycosis = settings: following 3-6 months of dosing, oral; cited from earlier work
smiles,measurement,setting,value
CN(C/C=C/C#CC(C)(C)C)Cc1cccc2ccccc12 [terbinafine],concentration of terbinafine in ethanol washes of the underside of the nail,"[1]; 0.1 mg/ml, 30% (v/v) ethanol, 7 days, single dose, BB2603 value is median",< 0.1 ng/mL
same,median concentration of drug in dissolved nails,"[1]; after 7 days, FIGS. 4 and 5A-5B",approximately 0.5 mg/g
same,MIC,"T. mentagrophytes; Trichophyton mentagrophytes, 120 h, 30° C.",600 ng/mL
same,zone of clearance with Franz cell aqueous sample passed through nail,T. mentagrophytes; collection chamber sample after 7 days nail treatment,no effect
same,MIC range,Epidermophyton floccosum,1 to 47 ng/mL
same,MIC range,Microsporum species,2 to 70 ng/mL
same,MIC range,Microsporum canis,6 to 80 ng/mL
same,MIC range,Trichophyton species,≤60 ng/mL
same,MIC range,Trichophyton rubrum,1 to 38 ng/mL
same,MIC range,Trichophron verrucosum,1 to 6 ng/mL
same,MIC range,[2]; 32 strains tested,1 to 6 ng/mL
same,previously reported MIC,[2]; liquid MIC assay,6 ng/mL
same,MIC range,[3],2 to 28 ng/mL
same,MIC range,Trichophyron terestre,2 ng/mL
same,concentration in nails following oral dosing,[4]; after 3 weeks,about 0.25 μg/g
same,concentration in nails following oral dosing,[4]; after 18 months,0.55 µg/g
same,concentration in nails following oral dosing,[4]; after 7 days treatment,0.1 µg/g
same,cure,onychomycosis,> 80%
